{"source": "patent US10981980B2", "about": "“Polypeptide targeting aptamers for characterization, capture, and clinical management of circulating tumor cells” (Counterpoint Biomedica LLC, priority 2016, dated 2021)", "note": "*: point of attachment. FITC = O=C1OC2(c3ccc(O)cc3Oc3cc(O)ccc32)c2ccc(NC(=S)*)cc21; Ahx = NCCCCCC(=O)O", "data": [{"system": "collagen-agarose beads", "test": "Collagen agarose binding assay", "details": "loaded in PBS pH 7.4, stringent washing, 10 column volumes of 1M NaCl in PBST, FIG. 3", "description": "FIG. 3 is a schematic and a photograph of a collagen agarose binding assay. Apt #1 is an aptamer consisting of SEQ ID NO: 1; Apt #7 is an aptamer consisting of SEQ ID NO: 7; Apt #19 is an aptamer consisting of SEQ ID NO: 19; and Apt #20 is an aptamer consisting of SEQ ID NO: 20. CBD=collagen-binding domain; CBD1=bovine vWF sequence comprising SEQ ID NO: 22; CBD2=human vWF sequence comprising SEQ ID NO: 23. […] Aptamers and reporters were mixed and loaded under mild binding conditions (PBS, pH 7.4), followed by washing with increasing concentrations of salt and/or detergent (PBST, using Tween 20). Stringent washing generally includes 10 column volumes of 1M NaCl in PBST, pH 7.4).", "values": [{"substance": "acetyl-VNTANSTGGSGARRGVRVAWREPGRMELNMPHGGSGK(FITC)-amide (Ac-VNTANSTGGSGARRGVRVAWREPGRMELNMPHGGSGK(FITC)-NH2; SMILES CSCC[C@H](NC(=O)[C@H](CCCNC(=N)N)NC(=O)CNC(=O)[C@@H]1CCCN1C(=O)[C@H](CCC(=O)O)NC(=O)[C@H](CCCNC(=N)N)NC(=O)[C@H](Cc1c[nH]c2ccccc12)NC(=O)[C@H](C)NC(=O)[C@@H](NC(=O)[C@H](CCCNC(=N)N)NC(=O)[C@@H](NC(=O)CNC(=O)[C@H](CCCNC(=N)N)NC(=O)[C@H](CCCNC(=N)N)NC(=O)[C@H](C)NC(=O)CNC(=O)[C@H](CO)NC(=O)CNC(=O)CNC(=O)[C@@H](NC(=O)[C@H](CO)NC(=O)[C@H](CC(N)=O)NC(=O)[C@H](C)NC(=O)[C@@H](NC(=O)[C@H](CC(N)=O)NC(=O)[C@@H](NC(C)=O)C(C)C)[C@@H](C)O)[C@@H](C)O)C(C)C)C(C)C)C(=O)N[C@@H](CCC(=O)O)C(=O)N[C@@H](CC(C)C)C(=O)N[C@@H](CC(N)=O)C(=O)N[C@@H](CCSC)C(=O)N1CCC[C@H]1C(=O)N[C@@H](Cc1c[nH]cn1)C(=O)NCC(=O)NCC(=O)N[C@@H](CO)C(=O)NCC(=O)N[C@@H](CCCCNC(=S)Nc1ccc2c(c1)C(=O)OC21c2ccc(O)cc2Oc2cc(O)ccc21)C(N)=O) [Aptamer #7]", "binding to collagen-agarose beads": "bind tightly"}, {"substance": "acetyl-STRSVSSSSYRRMFGGPGTASK(FITC)-amide (Ac-STRSVSSSSYRRMFGGPGTASK(FITC)-NH2; SMILES CSCC[C@H](NC(=O)[C@H](CCCNC(=N)N)NC(=O)[C@H](CCCNC(=N)N)NC(=O)[C@H](Cc1ccc(O)cc1)NC(=O)[C@H](CO)NC(=O)[C@H](CO)NC(=O)[C@H](CO)NC(=O)[C@H](CO)NC(=O)[C@@H](NC(=O)[C@H](CO)NC(=O)[C@H](CCCNC(=N)N)NC(=O)[C@@H](NC(=O)[C@H](CO)NC(C)=O)[C@@H](C)O)C(C)C)C(=O)N[C@@H](Cc1ccccc1)C(=O)NCC(=O)NCC(=O)N1CCC[C@H]1C(=O)NCC(=O)N[C@H](C(=O)N[C@@H](C)C(=O)N[C@@H](CO)C(=O)N[C@@H](CCCCNC(=S)Nc1ccc2c(c1)C(=O)OC21c2ccc(O)cc2Oc2cc(O)ccc21)C(N)=O)[C@@H](C)O) [Aptamer #9]", "binding to collagen-agarose beads": "bind tightly"}, {"substance": "acetyl-RRGVRVAWREPGRMELNMPHGGSGK(FITC)-amide (Ac-RRGVRVAWREPGRMELNMPHGGSGK(FITC)-NH2; SMILES CSCC[C@H](NC(=O)[C@H](CCCNC(=N)N)NC(=O)CNC(=O)[C@@H]1CCCN1C(=O)[C@H](CCC(=O)O)NC(=O)[C@H](CCCNC(=N)N)NC(=O)[C@H](Cc1c[nH]c2ccccc12)NC(=O)[C@H](C)NC(=O)[C@@H](NC(=O)[C@H](CCCNC(=N)N)NC(=O)[C@@H](NC(=O)CNC(=O)[C@H](CCCNC(=N)N)NC(=O)[C@H](CCCNC(=N)N)NC(C)=O)C(C)C)C(C)C)C(=O)N[C@@H](CCC(=O)O)C(=O)N[C@@H](CC(C)C)C(=O)N[C@@H](CC(N)=O)C(=O)N[C@@H](CCSC)C(=O)N1CCC[C@H]1C(=O)N[C@@H](Cc1c[nH]cn1)C(=O)NCC(=O)NCC(=O)N[C@@H](CO)C(=O)NCC(=O)N[C@@H](CCCCNC(=S)Nc1ccc2c(c1)C(=O)OC21c2ccc(O)cc2Oc2cc(O)ccc21)C(N)=O) [Aptamer #20]", "binding to collagen-agarose beads": "bind tightly"}]}, {"target": "purified recombinant His-tagged VIM (Homo sapiens, UniProt P08670)", "sequence (P08670 whole entry)": "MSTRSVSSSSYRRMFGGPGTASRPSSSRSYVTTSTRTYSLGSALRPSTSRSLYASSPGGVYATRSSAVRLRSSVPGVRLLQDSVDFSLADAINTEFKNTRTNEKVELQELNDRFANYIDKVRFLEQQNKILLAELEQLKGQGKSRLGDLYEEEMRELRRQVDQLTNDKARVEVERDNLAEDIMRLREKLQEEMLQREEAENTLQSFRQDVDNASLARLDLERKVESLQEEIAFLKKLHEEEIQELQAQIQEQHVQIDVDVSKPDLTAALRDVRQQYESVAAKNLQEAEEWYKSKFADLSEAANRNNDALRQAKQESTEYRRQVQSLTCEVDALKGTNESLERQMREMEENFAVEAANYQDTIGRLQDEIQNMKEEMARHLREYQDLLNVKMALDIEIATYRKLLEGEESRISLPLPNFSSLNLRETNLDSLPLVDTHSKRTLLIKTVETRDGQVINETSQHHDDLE", "test": "IMAC pull-down / comparative evaluation of vimentin-binding aptamers (net fluorescent signal with and without r-vimentin)", "details": "His-Tag beads, FIG. 5", "description": "FIG. 4 is a schematic and photograph of a IMAC Pull-down assay. The numbers 1, 2, 4, 7, 9, 11, 14, 16, 17, and 18 under the tubes correspond to aptamers consisting of SEQ ID NOs: 1, 2, 4, 7, 9, 11, 14, 16, 17, and 18, respectively. IMAC=[…]/Ni- or Metal-chelate chromatography.\nFIG. 5 is a graph showing a comparative evaluation of vimentin-binding aptamers. The numbers 1, 2, 4, 7, 9, 11, 14, 16, 17, 18, 22, and 23 under the graph correspond to aptamers consisting of SEQ ID NOs: 1, 2, 4, 7, 9, 11, 14, 16, 17, 18, 49, and 51, respectively.\nAptamers containing VIM binding domains were allowed to associate with purified recombinant His-tagged VIM, followed by the addition of His-Tag beads, which were then used to concentrate the His-VIM and associated aptamers (see FIG. 4). Numbers below the tubes in FIG. 4 reading from left to right, top to bottom, correspond to aptamers that include SEQ ID NOs: 1, 2, 4, 7, 9, 11, 14, 16, 17, and 18, respectively.\nThe comparative binding efficiency of the aptamers was evaluated by quantifying the net fluorescent signal in the presence and absence of vimentin (e.g., r-vimentin)(see FIG. 5). Numbers 1, 2, 4, 7, 9, 11, 14, 16, 17, 18, 22, and 23 below the graph correspond to aptamers that include SEQ ID NOs: 1, […], 4, 7, […], 11, 14, 16, 17, 18, 49, and 51, respectively. VIM-binding sequences from Phage Display studies were positive.", "values": [{"substance": "(FITC-Ahx)AGKKPRVTVTNVFLYNRPLNSTE-free acid ({FITC-Ahx}-AGKKPRVTVTNVFLYNRPLNSTE-OH; SMILES CC(C)C[C@H](NC(=O)[C@H](Cc1ccccc1)NC(=O)[C@@H](NC(=O)[C@H](CC(N)=O)NC(=O)[C@@H](NC(=O)[C@@H](NC(=O)[C@@H](NC(=O)[C@@H](NC(=O)[C@H](CCCNC(=N)N)NC(=O)[C@@H]1CCCN1C(=O)[C@H](CCCCN)NC(=O)[C@H](CCCCN)NC(=O)CNC(=O)[C@H](C)NC(=O)CCCCCNC(=S)Nc1ccc2c(c1)C(=O)OC21c2ccc(O)cc2Oc2cc(O)ccc21)C(C)C)[C@@H](C)O)C(C)C)[C@@H](C)O)C(C)C)C(=O)N[C@@H](Cc1ccc(O)cc1)C(=O)N[C@@H](CC(N)=O)C(=O)N[C@@H](CCCNC(=N)N)C(=O)N1CCC[C@H]1C(=O)N[C@@H](CC(C)C)C(=O)N[C@@H](CC(N)=O)C(=O)N[C@@H](CO)C(=O)N[C@H](C(=O)N[C@@H](CCC(=O)O)C(=O)O)[C@@H](C)O) [Aptamer #22]", "comparative binding efficiency (net fluorescent signal in the presence and absence of vimentin)": "Strong binding"}, {"substance": "acetyl-TRKRIRIQRGPGRAFVTIGGK(FITC)-amide (Ac-TRKRIRIQRGPGRAFVTIGGK(FITC)-NH2; SMILES CC[C@H](C)[C@H](NC(=O)[C@H](CCCNC(=N)N)NC(=O)[C@@H](NC(=O)[C@H](CCCNC(=N)N)NC(=O)[C@H](CCCCN)NC(=O)[C@H](CCCNC(=N)N)NC(=O)[C@@H](NC(C)=O)[C@@H](C)O)[C@@H](C)CC)C(=O)N[C@@H](CCC(N)=O)C(=O)N[C@@H](CCCNC(=N)N)C(=O)NCC(=O)N1CCC[C@H]1C(=O)NCC(=O)N[C@@H](CCCNC(=N)N)C(=O)N[C@@H](C)C(=O)N[C@@H](Cc1ccccc1)C(=O)N[C@H](C(=O)N[C@H](C(=O)N[C@H](C(=O)NCC(=O)NCC(=O)N[C@@H](CCCCNC(=S)Nc1ccc2c(c1)C(=O)OC21c2ccc(O)cc2Oc2cc(O)ccc21)C(N)=O)[C@@H](C)CC)[C@@H](C)O)C(C)C) [Aptamer #17]", "comparative binding efficiency (net fluorescent signal in the presence and absence of vimentin)": "Strong binding"}, {"substance": "(FITC-Ahx)AGKKPSVTVTNVFLYNRPLNSTE-free acid ({FITC-Ahx}-AGKKPSVTVTNVFLYNRPLNSTE-OH; SMILES CC(C)C[C@H](NC(=O)[C@H](Cc1ccccc1)NC(=O)[C@@H](NC(=O)[C@H](CC(N)=O)NC(=O)[C@@H](NC(=O)[C@@H](NC(=O)[C@@H](NC(=O)[C@@H](NC(=O)[C@H](CO)NC(=O)[C@@H]1CCCN1C(=O)[C@H](CCCCN)NC(=O)[C@H](CCCCN)NC(=O)CNC(=O)[C@H](C)NC(=O)CCCCCNC(=S)Nc1ccc2c(c1)C(=O)OC21c2ccc(O)cc2Oc2cc(O)ccc21)C(C)C)[C@@H](C)O)C(C)C)[C@@H](C)O)C(C)C)C(=O)N[C@@H](Cc1ccc(O)cc1)C(=O)N[C@@H](CC(N)=O)C(=O)N[C@@H](CCCNC(=N)N)C(=O)N1CCC[C@H]1C(=O)N[C@@H](CC(C)C)C(=O)N[C@@H](CC(N)=O)C(=O)N[C@@H](CO)C(=O)N[C@H](C(=O)N[C@@H](CCC(=O)O)C(=O)O)[C@@H](C)O) [Aptamer #23]", "comparative binding efficiency (net fluorescent signal in the presence and absence of vimentin)": "Strong binding"}]}]}
